Results reported in patent US20240342186A1, “PYRIDINE DERIVATIVES WITH N-LINKED CYCLIC SUBSTITUENTS AS cGAS INHIBITORS” (Boehringer Ingelheim International GmbH, priority 2021, published 2024).
Read-outs that look alike come from different tables or passages of the source.

Key:
cGAS = cGAS (Homo sapiens (Human), UniProt Q8N884); test: Human cGAS enzyme assay (hcGAS IC50, in vitro), cGAMP formation by RapidFire MS; format: biochemical;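 also: enzyme activated by 45 bp dsDNA with GTP and ATP (30 µM each), 60 min compound pre-incubation then 90 min reaction, cGAMP relative to cyclic-di-GMP internal standard, 8-point dilutions up to 10 µM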
cGAS, sequence (Q8N884 whole entry): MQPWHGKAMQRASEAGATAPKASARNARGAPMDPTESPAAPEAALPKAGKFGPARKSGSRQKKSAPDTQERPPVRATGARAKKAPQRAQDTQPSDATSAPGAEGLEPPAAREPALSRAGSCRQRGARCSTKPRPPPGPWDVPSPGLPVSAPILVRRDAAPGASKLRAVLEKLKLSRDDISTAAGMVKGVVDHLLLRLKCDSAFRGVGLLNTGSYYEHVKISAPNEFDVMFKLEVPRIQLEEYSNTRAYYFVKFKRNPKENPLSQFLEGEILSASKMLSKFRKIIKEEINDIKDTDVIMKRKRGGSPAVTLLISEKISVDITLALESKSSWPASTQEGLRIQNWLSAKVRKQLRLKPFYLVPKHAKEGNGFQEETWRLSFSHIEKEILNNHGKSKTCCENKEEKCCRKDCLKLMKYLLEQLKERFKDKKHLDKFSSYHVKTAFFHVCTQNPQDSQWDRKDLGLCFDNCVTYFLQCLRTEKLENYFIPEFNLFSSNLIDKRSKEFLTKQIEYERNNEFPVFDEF

[1] = test system: cellular cGAS activity in baculovirus-stimulated THP1-Dual cells (IRF dependent Lucia luciferase reporter); test: Human cGAS cell assay: inhibition of IFN induction in virus-stimulated THP1 cells (THP1(vir) IC50); format: cell-based; settings: Homo sapiens, THP1-Dual
Method in brief: (§1)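 THP1-Dual cells with IRF-dependent Lucia luciferase reporter, stimulated by empty baculovirus (dsDNA delivery activating cGAS) or, for the counter assay, directly by cGAMP. 5000 cells/well, 8 concentrations from 10 μM top, 1% DMSO, 18 h at 37 °C; luminescence read, IC50 by 4-parameter logistic fit versus unstimulated low control.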

[2] = test system: cGAMP-stimulated THP1-Dual cells (pathway directly downstream of cGAS); test: cGAMP stimulated counter cell assay: inhibition of IFN induction in cGAMP-stimulated THP1 cells (THP1(cGAMP) IC50); format: cell-based, human; settings: for IC50: Homo sapiens, THP1-Dual, read-out: THP1(cGAMP) IC50 (converted); for Ratio THP1(cGAMP) IC50 / THP1(vir) IC50: selectivity for cGAS inhibition
Method in brief: as §1

[3] = test system: cellular cGAS activity in dsDNA-stimulated human whole blood; test: Human whole blood assay (hWB IC50): IFNα2α production after dsDNA transfection; format: cell-based
Method in brief: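 Citrated blood from healthy donors preincubated 60 min at room temperature with compound (top 10 µM, ~1:5 steps, 0.1% DMSO), then transfected with dsDNA/Fugene and incubated 22 h at 37 °C. Plasma IFNα2α measured by MSD immunoassay; IC50 from 4-parameter fit of % control (stimulated vs unstimulated).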

[4] = biochemical (in vitro) cGAS inhibition
[5] = inhibition of IFN induction in virus-stimulated THP1 cells, read-out: THP1(vir) IC50
[6] = inhibition of IFN induction in cGAMP-stimulated THP1 cells
[7] = inhibition of IFN induction in dsDNA-stimulated human whole blood
[8] = biochemical (in vitro), human cGAS, 45 bp dsDNA, GTP/ATP
[9] = read-out: THP1(vir) IC50, virus-stimulated THP1 cells, IFN induction
[10] = cGAMP-stimulated THP1 cells, counter assay
[11] = dsDNA-stimulated human whole blood, IFN induction

Structure (SMILES)	IC50 (cGAS; [4]) [nM]	IC50 [1, 5] [nM]	IC50 [2, 6] [nM]	Ratio THP1(cGAMP) IC50 / THP1(vir) IC50 [2]	IC50 [3, 7] [nM]	IC50 (cGAS; [8]) [nM]	IC50 [1, 9] [nM]	IC50 [2, 10] [nM]	IC50 [3, 11] [nM]
C[C@@H]1N(c2cc(Cl)cnc2O[C@H]2C[C@@H](C(=O)O)N(c3nc(C(F)F)nc4c3oc3ccccc34)C2)CCOC12COC2 [Example 1.09]	2	19	22100	1169	19				
C[C@@H]1N(c2cc(-c3cccc(C(N)=O)c3)cnc2O[C@H]2C[C@@H](C(=O)O)N(c3nc(C(F)(F)F)nc4c3oc3ccccc34)C2)CCOC12COC2 [Example 3.13]	9	25	8350	335	65				
C[C@H]1COCCN1c1cc(-c2ccncc2F)cnc1O[C@H]1C[C@@H](C(=O)O)N(c2nc(C(F)(F)F)nc3c2oc2ccccc23)C1 [Example 3.03]	7	899	12800	14	2120				
C[C@H]1COCCN1c1cc(-c2cnn(C)c2)cnc1O[C@H]1C[C@@H](C(=O)O)N(c2nc(C(F)(F)F)nc3c2oc2ccccc23)C1 [Example 3.06]	9	525	21400	41	1990				
C[C@@H]1N(c2cc(-c3cncc(Cl)c3)cnc2O[C@H]2C[C@@H](C(=O)O)N(c3nc(C(F)(F)F)nc4c3oc3ccccc34)C2)CCOC12COC2 [Example 3.26]	11	48	9240	193	1370				
COC(=O)[C@@H]1C[C@H](Oc2ncccc2N2CCOC3(COC3)[C@@H]2C)CN1c1nc(C(F)F)nc2c1oc1ccccc12 [Example P01, Methyl (2S,4S)-4-({3-[(9S)-9-methyl-2,5-dioxa-8-azaspiro[3.5]nonan-8-yl]pyridin-2-yl}oxy)-1-[4-(difluoromethyl)-8-oxa-3,5-diazatricyclo[7.4.0.0^2,7]trideca-1(9),2(7),3,5,10,12-hexaen-6-yl]pyrrolidine-2-carboxylate]						> 9960	358	26100	1310
COc1ncccc1-c1cnc(O[C@H]2C[C@@H](C(=O)O)N(c3nc(C(F)(F)F)nc4c3oc3ccccc34)C2)c(N2CCOC3(COC3)[C@@H]2C)c1 [Example 3.14]	11	10	7830	822	26				
C#Cc1cnc(O[C@H]2C[C@@H](C(=O)O)N(c3nc(C(F)(F)F)nc4c3oc3ccccc34)C2)c(N2CCCC3(COC3)[C@@H]2C)c1 [Example 1.22]	5	21	7640	355	29				
C[C@@H]1N(c2cc(Br)cnc2O[C@H]2C[C@@H](C(=O)O)N(c3nc(C(F)(F)F)nc4c3oc3ccccc34)C2)CCOC12CC2 [Example 1.33]	3	15	> 10000	677	252				
C[C@@H]1N(c2cc(F)cnc2O[C@H]2C[C@@H](C(=O)O)N(c3nc(C(F)(F)F)nc4c3oc3ccccc34)C2)CCOC12COC2 [Example 1.34]	3	19	> 10000	514	51				
COc1csc(-c2cnc(O[C@H]3C[C@@H](C(=O)O)N(c4nc(C(F)(F)F)nc5c4oc4ccccc45)C3)c(N3CCOC4(COC4)[C@@H]3C)c2)n1 [Example 7.02]	14	1	8320	7533	13				
C#Cc1cnc(O[C@H]2C[C@@H](C(=O)OC)N(c3nc(C(F)(F)F)nc4c3oc3ccccc34)C2)c(N2CCOC3(COC3)[C@@H]2C)c1 [Example P03]						9620	188	22800	1090
C#Cc1cnc(O[C@H]2C[C@@H](C(=O)O)N(c3nc(C(F)(F)Cl)nc4c3oc3ccccc34)C2)c(N2CCOC3(COC3)[C@@H]2C)c1 [Example 1.16]	3	7	15000	2209	23				
C#Cc1cnc(O[C@H]2C[C@@H](C(=O)O)N(c3nc(C)nc4c3oc3cc(Cl)ccc34)C2)c(N2CCOC3(COC3)[C@@H]2C)c1 [Example 2.07]	3	14	14500	1005	28				
C#Cc1cnc(O[C@H]2C[C@@H](C(=O)O)N(c3nc(Cl)nc4c3oc3ccccc34)C2)c(N2CCOC3(COC3)[C@@H]2C)c1 [Example 2.05]	2	4	10800	3018	8				
C#Cc1cnc(O[C@H]2C[C@@H](C(=O)O)N(c3nc(C(F)(F)F)nc4c3oc3ccccc34)C2)c(N2CCOC3(COC3)[C@@H]2C)c1 [Example 1.12]	3	7	11900	1769	15				
C#Cc1cnc(O[C@H]2C[C@@H](C(=O)O)N(c3nc(C(F)F)nc4c3oc3ccccc34)C2)c(N2CCOCC2)c1 [Example 2.01, (2S,4S)-1-[4-(Difluoromethyl)-8-oxa-3,5-diazatricyclo[7.4.0.0^2,7]trideca-1(13),2,4,6,9,11-hexzen-6-yl]-4-{[5-ethynyl-3-(morpholin-4-yl)pyridin-2yl]oxy}-pyrrolidine-2-carboxylic acid]	8	858	> 16600	>19	506				
C[C@H]1COCCN1c1cc(-c2ccncc2)cnc1O[C@H]1C[C@@H](C(=O)O)N(c2nc(C(F)(F)F)nc3c2oc2ccccc23)C1 [Example 3.01, (2S,4S)-4-({5-[(3S)-3-methylmorpholin-4-yl]-[3,4′-bipyridin]-6-yl}oxy)-1-[4-(trifluoromethyl)-8-oxa-3,5-diazatricyclo[7.4.0.0^2,7]trideca-1(9),2(7),3,5,10,12-hexaen-6-yl]pyrrolidine-2-carboxylic acid]	9	982	> 16600	>17	1610				
C#Cc1cnc(O[C@H]2C[C@@H](C(=O)O)N(c3nc(CCl)nc4c3oc3ccccc34)C2)c(N2CCOC3(COC3)[C@@H]2C)c1 [Example 2.10]	3	5	2750	533	24				
CNc1cc(-c2cnc(O[C@H]3C[C@@H](C(=O)O)N(c4nc(C(F)F)nc5c4oc4ccccc45)C3)c(N3CCOC4(COC4)[C@@H]3C)c2)ccn1 [Example 3.08]	5	4	4790	1179	3				
C[C@@H]1N(c2cc(-c3cccc(N(C)C)c3)cnc2O[C@H]2C[C@@H](C(=O)O)N(c3nc(C(F)(F)F)nc4c3oc3ccccc34)C2)CCOC12COC2 [Example 3.17]	20	11	16800	1542	43				
